Earlier results as cited in patent publication US10238717B2 (Latitude Pharmaceuticals, Inc., priority 2014, dated 2019).
Read-outs that look alike come from different tables or passages of the source.

SMILES | Concentration of sugar in water at saturation (25° C.) | Concentration of sugar in water at saturation (20° C.) | also measured
OC[C@H]1O[C@@H](O[C@H]2[C@H](O)[C@@H](O)C(O)O[C@@H]2CO)[C@H](O)[C@@H](O)[C@H]1O (some centres unmarked) [lactose] | about 21.6 % w/v |  | 
OC[C@H]1O[C@H](O[C@H]2O[C@H](CO)[C@@H](O)[C@H](O)[C@H]2O)[C@H](O)[C@@H](O)[C@@H]1O [trehalose] |  | about 68.9 % w/v | 
OC[C@@H](O)[C@@H](O)[C@H](O)[C@H](O)CO [mannitol] |  |  | Concentration of sugar in water at saturation (temperature not given): about 25 % w/v
OC[C@@H](O)[C@@H](O)[C@H](O)[C@@H](O)CO [sorbitol] |  | about 22 % w/v | 
OC[C@H]1O[C@@](CO)(O[C@H]2O[C@H](CO)[C@@H](O)[C@H](O)[C@H]2O)[C@@H](O)[C@@H]1O [sucrose] | about 200 % w/v |  | 
